Patent publication US11147772B2, “Timed, pulsatile release systems” (Adare Pharmaceuticals, Inc., priority 2005, dated 2021)
Structures can show the parent of a compound that is named as a salt.

Experiments:
[1] = pH of representative drugs suspended in water; type: physicochemical; conditions: for pH when suspended in purified water (range over the concentrations of Table 1): range over tested solid contents; for Acidity/Alkalinity: drug suspended in water
[2] = Drug release (dissolution) testing of TPR beads in two-stage medium, lag-time; type: physicochemical; conditions: expected from higher alkalinity, given coating conditions
Method: Dissolution testing of IR beads and enteric coated beads (for acid resistance testing) is conducted with a USP Apparatus 1 (baskets at 100 rpm) or Apparatus 2 (paddles at 50 rpm) in 900 mL of 0.1N HCl at 37° C. while the dissolution testing of TPR beads is conducted in a USP apparatus using a two-stage dissolution medium (first 2 hours in 700 mL of 0.1N HCl at 37° C. followed by dissolution testing at pH=6.8 obtained by the addition of 200 mL of pH modifier). Drug release with time is determined by HPLC on samples pulled at selected intervals.
Drug Release Testing: The drug release profiles were generated by dissolution testing per US Pharmacopoeia method (Apparatus 1 with baskets at 100 rpm or Apparatus 2 with paddles at 50 rpm) using 700 mL of p H 1.2 buffer for 2 hours followed by testing in 900 mL of pH 6.8 for the remaining time-points). The IR and enteric-coated beads were tested in 900 mL of 0.1N HCl for 1 and 1.5 hrs, respectively. The samples pulled at different time-points were quantified by HPLC.

[3] = drug concentration (solid content) 0.1 mg/mL in water
[4] = drug concentration (solid content) 1.0 mg/mL in water
[5] = drug concentration (solid content) 10 mg/mL in water
[6] = drug concentration (solid content) 0.2 mg/mL in water
[7] = drug concentration (solid content) 2.0 mg/mL in water
[8] = drug concentration (solid content) 20 mg/mL in water

Compound | pH of Solution/Suspension [1, 3] | pH of Solution/Suspension [1, 4] | pH of Solution/Suspension [1, 5] | pH when suspended in purified water (range over the concentrations of Table 1) [1] | lag time relative to nizatidine [2] | Acidity/Alkalinity [1] | pH of Solution/Suspension [1, 6] | pH of Solution/Suspension [1, 7] | pH of Solution/Suspension [1, 8]
CC(C)NCC(O)COc1ccc(CC(N)=O)cc1 (stereo not shown) [Atenolol] | pH = 7.9 | pH = 10.9 | pH = 11.0 | 7.9-11.0 | shorter lag time than nizatidine |  |  |  | 
CN(C)CCC=C1c2ccccc2C=Cc2ccccc21 [Cyclobenzaprine Hydrochloride] | pH = 6.1 | pH = 6.5 | pH = 6.7 |  |  | Acidic (exhibiting a pH of 7.0, or less, when suspended in water at a solid content of 2 mg/mL is designated as an acidic drug) |  |  | 
CNC(=C[N+](=O)[O-])NCCSCc1csc(CN(C)C)n1 [Nizatidine] |  |  |  | 6.5-8.7 |  | Alkaline (an API exhibiting a pH of 7.0, or greater, is designated as an alkaline drug) | pH = 6.5 | pH = 7.4 | pH = 8.7
CC(C)NCC(O)COc1cccc2ccccc12 (stereo not shown) [Propranolol Hydrochloride] |  |  |  | 5.7-6.5 |  | Acidic (exhibiting a pH of 7.0, or less, when suspended in water at a solid content of 2 mg/mL is designated as an acidic drug) | pH = 5.7 | pH = 6.0 | pH = 6.5
